For three molecules, Activity results are on record in ChEMBL document CHEMBL2074305, “P-glycoprotein induction in rat liver epithelial cells in response to acute 3-methylcholanthrene treatment” (Biochem Pharmacol, 1996).

SMILES strings stand for the structures.

Data set [1] concerns the target ATP-dependent translocase ABCB1 (Rattus norvegicus, UniProt P43245). The data set is described as follows: TP_TRANSPORTER: RT-PCR in vitro, nonparenchymal rat liver epithelial cells. Type of data set: functional, tissue-based. Particulars: epithelial cell.
In data set [2] the target is Multidrug resistance protein 1a (Rattus norvegicus) (UniProt Q6PSM0). The data set is described as follows: TP_TRANSPORTER: Western in vitro, nonparenchymal rat liver epithelial cells. Type of data set: functional, tissue-based. The note with it: Epithelial cell.
Multidrug resistance protein 1a (Rattus norvegicus), sequence (Q6PSM0 as listed by the source): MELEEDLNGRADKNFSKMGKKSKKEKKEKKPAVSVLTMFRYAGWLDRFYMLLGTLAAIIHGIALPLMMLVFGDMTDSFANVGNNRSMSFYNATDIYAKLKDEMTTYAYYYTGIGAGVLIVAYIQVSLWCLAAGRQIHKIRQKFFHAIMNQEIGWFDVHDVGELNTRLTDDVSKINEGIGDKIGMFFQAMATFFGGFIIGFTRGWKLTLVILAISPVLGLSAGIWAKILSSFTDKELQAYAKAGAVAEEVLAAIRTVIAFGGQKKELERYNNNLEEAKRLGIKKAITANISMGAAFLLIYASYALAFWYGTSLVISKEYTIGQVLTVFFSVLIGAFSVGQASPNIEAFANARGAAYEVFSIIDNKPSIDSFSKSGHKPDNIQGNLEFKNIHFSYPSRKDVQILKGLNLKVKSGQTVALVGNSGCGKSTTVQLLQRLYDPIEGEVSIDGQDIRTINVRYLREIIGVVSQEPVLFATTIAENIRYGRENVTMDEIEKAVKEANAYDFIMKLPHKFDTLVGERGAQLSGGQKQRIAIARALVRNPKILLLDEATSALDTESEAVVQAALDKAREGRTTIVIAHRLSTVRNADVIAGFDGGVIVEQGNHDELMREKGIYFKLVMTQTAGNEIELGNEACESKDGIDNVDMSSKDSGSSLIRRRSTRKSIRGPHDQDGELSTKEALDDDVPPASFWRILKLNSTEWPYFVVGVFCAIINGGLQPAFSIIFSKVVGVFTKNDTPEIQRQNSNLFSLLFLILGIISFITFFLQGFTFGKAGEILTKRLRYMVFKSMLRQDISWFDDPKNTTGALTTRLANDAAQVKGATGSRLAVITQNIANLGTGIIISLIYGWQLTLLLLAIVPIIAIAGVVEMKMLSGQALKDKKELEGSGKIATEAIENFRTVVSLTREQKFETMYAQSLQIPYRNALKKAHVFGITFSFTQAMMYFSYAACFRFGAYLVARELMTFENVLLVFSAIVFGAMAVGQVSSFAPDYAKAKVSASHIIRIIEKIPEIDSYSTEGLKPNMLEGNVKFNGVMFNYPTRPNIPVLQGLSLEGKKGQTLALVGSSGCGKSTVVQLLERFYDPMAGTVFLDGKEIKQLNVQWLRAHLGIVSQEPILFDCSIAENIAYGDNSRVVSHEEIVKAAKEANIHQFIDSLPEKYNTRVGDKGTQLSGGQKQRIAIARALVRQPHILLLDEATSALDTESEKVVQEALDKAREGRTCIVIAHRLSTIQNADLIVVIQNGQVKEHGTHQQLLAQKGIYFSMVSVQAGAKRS
The target is the same in data set [3]. The data set is described as follows: TP_TRANSPORTER: Northern blot in vitro, nonparenchymal ral liver epithelial cells. The format is functional. Particulars: Epithelial cell.

ATP-dependent translocase ABCB1, sequence (P43245 whole entry): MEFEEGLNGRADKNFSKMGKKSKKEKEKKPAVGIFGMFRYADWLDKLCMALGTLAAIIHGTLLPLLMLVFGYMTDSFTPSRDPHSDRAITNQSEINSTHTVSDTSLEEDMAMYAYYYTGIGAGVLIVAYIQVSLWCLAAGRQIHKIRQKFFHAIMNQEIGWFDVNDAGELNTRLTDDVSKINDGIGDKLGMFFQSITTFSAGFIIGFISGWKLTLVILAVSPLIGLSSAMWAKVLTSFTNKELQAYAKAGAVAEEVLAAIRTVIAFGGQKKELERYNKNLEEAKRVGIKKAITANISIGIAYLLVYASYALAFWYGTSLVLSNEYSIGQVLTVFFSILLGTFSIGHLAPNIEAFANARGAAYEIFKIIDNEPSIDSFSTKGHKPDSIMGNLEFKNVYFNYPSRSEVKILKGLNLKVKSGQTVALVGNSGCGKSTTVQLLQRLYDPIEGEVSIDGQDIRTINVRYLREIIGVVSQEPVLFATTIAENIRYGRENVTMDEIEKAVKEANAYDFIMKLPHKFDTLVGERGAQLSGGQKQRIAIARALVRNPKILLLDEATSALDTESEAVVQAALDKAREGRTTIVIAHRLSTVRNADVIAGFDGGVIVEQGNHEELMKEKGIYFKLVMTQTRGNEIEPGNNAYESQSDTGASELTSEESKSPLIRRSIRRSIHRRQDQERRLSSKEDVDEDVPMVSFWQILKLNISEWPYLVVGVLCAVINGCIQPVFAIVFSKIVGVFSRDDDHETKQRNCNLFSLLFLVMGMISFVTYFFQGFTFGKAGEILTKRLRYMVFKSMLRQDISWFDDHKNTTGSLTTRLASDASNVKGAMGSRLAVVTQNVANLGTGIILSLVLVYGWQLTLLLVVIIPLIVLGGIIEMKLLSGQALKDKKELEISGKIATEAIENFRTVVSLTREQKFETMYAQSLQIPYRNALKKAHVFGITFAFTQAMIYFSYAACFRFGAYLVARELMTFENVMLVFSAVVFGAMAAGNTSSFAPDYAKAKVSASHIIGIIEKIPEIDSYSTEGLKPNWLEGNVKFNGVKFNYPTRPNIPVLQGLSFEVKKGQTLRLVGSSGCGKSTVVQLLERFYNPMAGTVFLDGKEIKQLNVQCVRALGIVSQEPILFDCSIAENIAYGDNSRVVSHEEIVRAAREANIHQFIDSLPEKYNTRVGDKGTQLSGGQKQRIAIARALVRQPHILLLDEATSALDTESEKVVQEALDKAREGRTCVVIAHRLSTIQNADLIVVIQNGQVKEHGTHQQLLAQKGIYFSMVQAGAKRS

With `Cc1ccc2cc3c(ccc4ccccc43)c3c2c1CC3` [3-METHYLCHOLANTHRENE], the Activity result in data set [1] and in data set [2] was “inducer [+]” in each case.
As for `c1ccc2c(c1)cc1ccc3cccc4ccc2c1c34`, the Activity result in data set [3] is “inducer [+]”.
As for `C[C@@H]1C[C@@H]([C@H](O)CC2CC(=O)NC(=O)C2)C(=O)[C@@H](C)C1`, the Activity result in data set [3] is “inducer [+]”.
